Experimental data as given in PubChem BioAssay (NCI).
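Test compounds were applied to cells in 96-well plates for 48 hours at 5 doses. TGI marks complete inhibition of growth.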

Key:
Test in all cases: NCI tumour cell line growth inhibition, 48 h
A498 renal = test system: A498 renal
A549 NSCLC = test system: A549 NSCLC
CAKI-1 renal = test system: CAKI-1 renal
CCRF-CEM leukemia = test system: CCRF-CEM leukemia
COLO 205 colon = test system: COLO 205 colon
DLD-1 colon = test system: DLD-1 colon
DMS 114 small cell lung = test system: DMS 114 small cell lung
DMS 273 small cell lung = test system: DMS 273 small cell lung
EKVX NSCLC = test system: EKVX NSCLC
HCC-2998 colon = test system: HCC-2998 colon
HCT-116 colon = test system: HCT-116 colon
HCT-15 colon = test system: HCT-15 colon
HOP-18 NSCLC = test system: HOP-18 NSCLC
HOP-62 NSCLC = test system: HOP-62 NSCLC
HOP-92 NSCLC = test system: HOP-92 NSCLC
HT29 colon = test system: HT29 colon
IGROV1 ovarian = test system: IGROV1 ovarian
K-562 leukemia = test system: K-562 leukemia
KM12 colon = test system: KM12 colon
LOX IMVI melanoma = test system: LOX IMVI melanoma
M19-MEL melanoma = test system: M19-MEL melanoma
MALME-3M melanoma = test system: MALME-3M melanoma
MCF7 breast = test system: MCF7 breast
MOLT-4 leukemia = test system: MOLT-4 leukemia
NCI-H226 lung = test system: NCI-H226 lung
NCI-H23 lung = test system: NCI-H23 lung
NCI-H460 lung = test system: NCI-H460 lung
NCI-H522 lung = test system: NCI-H522 lung
NCI/ADR-RES ovarian = test system: NCI/ADR-RES ovarian
OVCAR-3 ovarian = test system: OVCAR-3 ovarian
OVCAR-4 ovarian = test system: OVCAR-4 ovarian
OVCAR-5 ovarian = test system: OVCAR-5 ovarian
OVCAR-8 ovarian = test system: OVCAR-8 ovarian
P388 leukemia = test system: P388 leukemia
P388/ADR leukemia = test system: P388/ADR leukemia
RPMI-8226 leukemia = test system: RPMI-8226 leukemia
RXF 393 renal = test system: RXF 393 renal
SF-268 CNS = test system: SF-268 CNS
SF-295 CNS = test system: SF-295 CNS
SF-539 CNS = test system: SF-539 CNS
SK-MEL-2 melanoma = test system: SK-MEL-2 melanoma
SK-MEL-28 melanoma = test system: SK-MEL-28 melanoma
SK-MEL-5 melanoma = test system: SK-MEL-5 melanoma
SK-OV-3 ovarian = test system: SK-OV-3 ovarian
SN12C renal = test system: SN12C renal
SN12K1 renal = test system: SN12K1 renal
SNB-19 CNS = test system: SNB-19 CNS
SNB-75 CNS = test system: SNB-75 CNS
SNB-78 CNS = test system: SNB-78 CNS
SW-620 colon = test system: SW-620 colon
U251 CNS = test system: U251 CNS
UACC-257 melanoma = test system: UACC-257 melanoma
UACC-62 melanoma = test system: UACC-62 melanoma
UO-31 renal = test system: UO-31 renal
XF 498 CNS = test system: XF 498 CNS
786-0 renal = test system: 786-0 renal
ACHN renal = test system: ACHN renal
BT-549 breast = test system: BT-549 breast
DU-145 prostate = test system: DU-145 prostate
HL-60(TB) leukemia = test system: HL-60(TB) leukemia
HS 578T breast = test system: HS 578T breast
KM20L2 colon = test system: KM20L2 colon
M14 melanoma = test system: M14 melanoma
MDA-MB-231 breast = test system: MDA-MB-231 breast
MDA-MB-435 = test system: MDA-MB-435
MDA-N = test system: MDA-N
PC-3 prostate = test system: PC-3 prostate
SR leukemia = test system: SR leukemia
T-47D breast = test system: T-47D breast
TK-10 renal = test system: TK-10 renal

For Cc1ccc(C(=O)Nc2ncn(C3CC(O)C(CO)O3)c(=O)n2)cc1 (stereo not given), the TGI (A498 renal) was over 0.1 mM, the TGI (A549 NSCLC) was over 0.1 mM and the TGI (CAKI-1 renal) was over 0.1 mM. It also gave a TGI (CCRF-CEM leukemia) of over 0.1 mM, a TGI (COLO 205 colon) of over 0.1 mM and a TGI (DLD-1 colon) of over 0.1 mM. For the same compound, the TGI (DMS 114 small cell lung) was over 0.1 mM, the TGI (DMS 273 small cell lung) was over 0.1 mM and the TGI (EKVX NSCLC) was over 0.1 mM. It also gave a TGI (HCC-2998 colon) of over 0.1 mM, a TGI (HCT-116 colon) of over 0.1 mM and a TGI (HCT-15 colon) of over 0.1 mM. The TGI (HOP-18 NSCLC) was over 0.1 mM, the TGI (HOP-62 NSCLC) was over 0.1 mM and the TGI (HOP-92 NSCLC) was over 0.1 mM. For the same compound, the TGI (HT29 colon) was over 0.1 mM, the TGI (IGROV1 ovarian) was over 0.1 mM and the TGI (K-562 leukemia) was over 0.1 mM. The TGI (KM12 colon) was over 0.1 mM, the TGI (LOX IMVI melanoma) was over 0.1 mM and the TGI (M19-MEL melanoma) was over 0.1 mM. It also gave a TGI (MALME-3M melanoma) of over 0.1 mM, a TGI (MCF7 breast) of over 0.1 mM and a TGI (MOLT-4 leukemia) of 0.0973 mM. The TGI (NCI-H226 lung) was over 0.1 mM, the TGI (NCI-H23 lung) was over 0.1 mM and the TGI (NCI-H460 lung) was over 0.1 mM. For the same compound, the TGI (NCI-H522 lung) was over 0.1 mM, the TGI (NCI/ADR-RES ovarian) was over 0.1 mM and the TGI (OVCAR-3 ovarian) was over 0.0565 mM. The TGI (OVCAR-4 ovarian) was over 0.1 mM, the TGI (OVCAR-5 ovarian) was over 0.1 mM and the TGI (OVCAR-8 ovarian) was over 0.1 mM. For the same compound, the TGI (P388 leukemia) was over 0.1 mM, the TGI (P388/ADR leukemia) was 0.0295 mM and the TGI (RPMI-8226 leukemia) was over 0.1 mM. It also gave a TGI (RXF 393 renal) of over 0.1 mM, a TGI (SF-268 CNS) of over 0.1 mM and a TGI (SF-295 CNS) of over 0.1 mM. For the same compound, the TGI (SF-539 CNS) was over 0.1 mM, the TGI (SK-MEL-2 melanoma) was over 0.1 mM and the TGI (SK-MEL-28 melanoma) was over 0.1 mM. The TGI (SK-MEL-5 melanoma) was over 0.1 mM, the TGI (SK-OV-3 ovarian) was over 0.1 mM and the TGI (SN12C renal) was over 0.1 mM. It also gave a TGI (SN12K1 renal) of over 0.1 mM, a TGI (SNB-19 CNS) of over 0.1 mM and a TGI (SNB-75 CNS) of over 0.1 mM. It also gave a TGI (SNB-78 CNS) of over 0.1 mM, a TGI (SW-620 colon) of over 0.1 mM and a TGI (U251 CNS) of over 0.1 mM. The TGI (UACC-257 melanoma) was over 0.1 mM, the TGI (UACC-62 melanoma) was over 0.1 mM and the TGI (UO-31 renal) was over 0.1 mM. It also gave a TGI (XF 498 CNS) of over 0.1 mM.
CCC1(c2ccc(N)cc2)CCC(=O)NC1=O (stereo not given) gave a TGI (786-0 renal) of over 5 mM, a TGI (A498 renal) of over 5 mM and a TGI (A549 NSCLC) of over 5 mM. For the same compound, the TGI (ACHN renal) was over 5 mM, the TGI (BT-549 breast) was over 5 mM and the TGI (CAKI-1 renal) was 4.31 mM. It also gave a TGI (CCRF-CEM leukemia) of over 1.99 mM, a TGI (COLO 205 colon) of 3.07 mM and a TGI (DLD-1 colon) of over 5 mM. It also gave a TGI (DMS 114 small cell lung) of over 4.32 mM, a TGI (DMS 273 small cell lung) of over 5 mM and a TGI (DU-145 prostate) of over 5 mM. The TGI (EKVX NSCLC) was over 5 mM, the TGI (HCC-2998 colon) was over 5 mM and the TGI (HCT-116 colon) was over 5 mM. The TGI (HCT-15 colon) was over 5 mM, the TGI (HL-60(TB) leukemia) was 3.63 mM and the TGI (HOP-18 NSCLC) was over 4.91 mM. For the same compound, the TGI (HOP-62 NSCLC) was over 1.58 mM, the TGI (HOP-92 NSCLC) was 3.56 mM and the TGI (HS 578T breast) was over 5 mM. For the same compound, the TGI (HT29 colon) was over 3.75 mM, the TGI (IGROV1 ovarian) was over 4.85 mM and the TGI (K-562 leukemia) was over 5 mM. The TGI (KM12 colon) was over 3.87 mM, the TGI (KM20L2 colon) was over 5 mM and the TGI (LOX IMVI melanoma) was over 3.97 mM. For the same compound, the TGI (M14 melanoma) was over 4.56 mM, the TGI (M19-MEL melanoma) was over 4.74 mM and the TGI (MALME-3M melanoma) was over 4.86 mM. The TGI (MCF7 breast) was over 5 mM, the TGI (MDA-MB-231 breast) was over 5 mM and the TGI (MDA-MB-435) was over 5 mM. The TGI (MDA-N) was over 5 mM, the TGI (MOLT-4 leukemia) was over 3.75 mM and the TGI (NCI-H226 lung) was over 4.82 mM. It also gave a TGI (NCI-H23 lung) of over 5 mM, a TGI (NCI-H460 lung) of over 5 mM and a TGI (NCI-H522 lung) of 4.95 mM. The TGI (NCI/ADR-RES ovarian) was 4.82 mM, the TGI (OVCAR-3 ovarian) was over 3.97 mM and the TGI (OVCAR-4 ovarian) was 4.94 mM. It also gave a TGI (OVCAR-5 ovarian) of over 5 mM, a TGI (OVCAR-8 ovarian) of over 5 mM and a TGI (P388 leukemia) of over 5 mM. For the same compound, the TGI (P388/ADR leukemia) was over 2.81 mM, the TGI (PC-3 prostate) was 4.55 mM and the TGI (RPMI-8226 leukemia) was over 5 mM. The TGI (RXF 393 renal) was over 3.97 mM, the TGI (SF-268 CNS) was over 5 mM and the TGI (SF-295 CNS) was over 3.87 mM. It also gave a TGI (SF-539 CNS) of over 5 mM, a TGI (SK-MEL-2 melanoma) of over 5 mM and a TGI (SK-MEL-28 melanoma) of over 5 mM. For the same compound, the TGI (SK-MEL-5 melanoma) was 3.67 mM, the TGI (SK-OV-3 ovarian) was 1.95 mM and the TGI (SN12C renal) was over 5 mM. It also gave a TGI (SN12K1 renal) of over 5 mM, a TGI (SNB-19 CNS) of over 5 mM and a TGI (SNB-75 CNS) of 4.49 mM. For the same compound, the TGI (SNB-78 CNS) was 4.97 mM, the TGI (SR leukemia) was over 5 mM and the TGI (SW-620 colon) was over 3.97 mM. It also gave a TGI (T-47D breast) of over 4.73 mM, a TGI (TK-10 renal) of 4.89 mM and a TGI (U251 CNS) of over 4.06 mM. The TGI (UACC-257 melanoma) was over 4.88 mM, the TGI (UACC-62 melanoma) was over 4.51 mM and the TGI (UO-31 renal) was over 3.95 mM. The TGI (XF 498 CNS) was 4.26 mM.
